Test results from PMC11352273, “The Proapoptotic Action of Pyrrolidinedione–Thiazolidinone Hybrids towards Human Breast Carcinoma Cells Does Not Depend on Their Genotype” (Cancers, 2024).
pIC50: −log10 of the molar value.

Key:
[1] = tested on: MDA-MB-231, 4T1, MCF-7, T-47D, and HCC1954 cells; assay: MTT assay, summary over breast carcinoma cell lines; format: cell-based
Protocol: The MCF-7 and MDA-MB-231 cells were cultured in the DMEM medium containing 10% of the FBS, HCC1954, T-47D, and 4T1 cells in the RPMI-1640 medium with the addition of 10% of the FBS, and MCF-10A cells in MEGM Mammary Epithelial Cell Growth Medium BulletKit supplemented with penicillin/streptomycin cocktail and 5% of horse serum. The cells were cultured in a […] atmosphere at 5% CO2 and 37 °C. After trypsinization, cells were counted using a Scepter 3.0 handheld automated cell counter (Millipore, Burlington, MA, USA).
The MTT test was used to assess the metabolic activity of cells treated with the investigated substances following the Sigma-Aldrich manufacturer’s instructions. Briefly, compounds were added in 100 µL of the cultural medium, and cells were incubated for the next 24 and 48 h. Doxorubicin was used as a reference drug. The DMSO was added to dissolve the crystals of formazan. We used the ThermoScientific Evolution 201 UV–VIS spectrophotometer (ThermoFisher Scientific, Waltham, MA, USA) to measure the absorbance of formazan at 570 nm. The initial value of the relative number of cells in control (under 0.1% of the DMSO) was accepted as 100%. We used GraphPad Prism Version 9 to calculate the half-maximal inhibition concentration (IC50) of the studied compounds (the concentration of the drug that reduced cell viability by 50%).

[2] = tested on: mitogen-activated lymphocytes collected from the peripheral blood of a healthy donor; design: method as in PMID 37579525; conditions: cited from earlier work
caspase 9 in MCF-7 cells = assay: Caspase-9 activity, FAM-FLICA flow cytometry; format: cell-based, human; conditions: MCF-7, 24 h
Protocol: (§3) The assay was performed following the manufacturer’s instructions and the previously described methodology [25]. […] The cells were gathered, rinsed twice with chilled PBS, and reconstituted in an Apoptosis Wash Buffer. Then, 10 µL of freshly diluted FLICA solution was added to 290 µL of cell suspension and incubated for an hour at 37 °C. Following two rounds of washing with 2 mL of Apoptosis Wash Buffer, the cells were centrifuged, resuspended in 300 µL of the buffer, and then analyzed [25].

[3] = tested on: caspase 3/7 in MDA-MB-231 cells; assay: Caspase-3/7 activity, FAM-FLICA flow cytometry; conditions: MDA-MB-231, 24 h
Protocol: as §3

[4] = tested on: caspase 3/7 in MCF-7 cells; assay: Caspase-3/7 activity, FAM-FLICA flow cytometry; conditions: MCF-7, 24 h
Protocol: as §3

[5] = tested on: normal human keratinocytes (HaCaT); design: method as in PMID 37579525; conditions: cited from earlier work
caspase 8 in MCF-7 cells = assay: Caspase-8 activity, FAM-FLICA flow cytometry; format: cell-based, human; conditions: MCF-7, 24 h
Protocol: as §3

Beclin-1 in MCF-7 cells = assay: Beclin-1 ELISA in cell lysates; format: cell-based, human; conditions: MCF-7, 24 h, 2 μM; untreated control 4.08 ng/mL
Protocol: (§1) In order to determine the Beclin-1 concentration in the cell lysates, the SimpleStep ELISA (Abcam, Cambridge, UK) Kit was used. MMP-2, MMP-9, and ICAM-1 concentrations were measured in culture supernatants using high-sensitivity human SimpleStep ELISA kits (Abcam, Cambridge, UK) according to the manufacturer’s protocols. The LC3B ELISA kit (BT LAB, Shanghai, China) was used to check the protein concentration in cell lysates from analyzed breast cancer cells. The procedure for preparing the samples was shown previously.

[6] = tested on: Beclin-1 in MDA-MB-231 cells; assay: Beclin-1 ELISA in cell lysates; format: cell-based, human; conditions: MDA-MB-231, 24 h, 2 μM; untreated control 11.79 ng/mL
Protocol: as §1

[7] = tested on: caspase 10 in MDA-MB-231 cells; assay: Caspase-10 activity, FAM-FLICA flow cytometry; format: cell-based, human; conditions: MDA-MB-231, 24 h
MCF-7 cells = assay: JC-1 mitochondrial membrane potential flow cytometry; format: cell-based, human; conditions: MCF-7, 24 h
Protocol: (§2) The JC-1 MitoScreen kit (BD Pharmigen, San Diego, CA, USA) and a flow cytometer (BD FACSCanto II) were used to detect the decrease in mitochondrial membrane potential (MMP, ΔΨm) under the action of the studied compounds. […] Following washing, the cells were further suspended in 0.5 mL of buffer with 10 µg/mL JC-1 and incubated for 15 min at room temperature in the dark. Then, cells were washed twice with buffer, resuspended in 300 µL PBS, and analyzed.

MDA-MB-231 cells = assay: as above; format: cell-based, human; conditions: MDA-MB-231, 24 h
Protocol: as §2

[8] = tested on: caspase 10 in MCF-7 cells; assay: Caspase-10 activity, FAM-FLICA flow cytometry; format: cell-based, human; conditions: MCF-7, 24 h
LC3B in MDA-MB-231 cells = assay: LC3B ELISA in cell lysates; format: cell-based, human; conditions: MDA-MB-231, 24 h, 2 μM; control 698.25 ng/mL
Protocol: as §1

LC3B in MCF-7 cells = assay: LC3B ELISA in cell lysates; format: cell-based, human; conditions: MCF-7, 24 h, compound concentration not stated; control 574.84 ng/mL
Protocol: as §1

[9] = tested on: caspase 8 in MDA-MB-231 cells; assay: Caspase-8 activity, FAM-FLICA flow cytometry; format: cell-based, human; conditions: MDA-MB-231, 24 h
Protocol: as §3

pIC50 ([1]; Breast carcinoma cell, 24 and 48 h, all five cancer cell lines and all three hybrids together, read-out: IC50, range over breast carcinoma cell lines): 4.66 to 5.86
Compound: O=C1CC(N2C(=O)C(=CC(Cl)=Cc3ccc([N+](=O)[O-])cc3)SC2=S)C(=O)N1c1ccc(O)cc1 (centres unmarked) [Les-6287, 1-(4-hydroxyphenyl)-3-[5-[2-chloro-3-(4-nitrophenyl)prop-2-enylidene]-4-oxo-2-thioxothiazolidine-3-yl]pyrrolidine-2,5-dione]
selectivity index (SI = IC50 for MCF-10A/IC50 for human breast tumor cells) ([1]; range over cell lines and time points): 24.10–47.13
pIC50 [2]: 4.17 to 4.54
cells with active caspase 9 (caspase 9 in MCF-7 cells; 1 µM): 24.40 ± 0.98%
cells with active caspase 9 (caspase 9 in MCF-7 cells; 1.5 µM): 36.45 ± 1.05%
cells with active caspase 3/7 ([3]; 1 µM): 17.20 ± 1.58%
cells with active caspase 3/7 ([3]; 1.5 µM): 26.63 ± 8.32%
cells with active caspase 3/7 ([4]; 1 µM): 21.38 ± 1.50%
cells with active caspase 3/7 ([4]; 1.5 µM): 47.08 ± 3.40%
pIC50 [5]: < 4.13
cells with active caspase 8 (caspase 8 in MCF-7 cells; 1 µM): 11.08 ± 1.30%
cells with active caspase 8 (caspase 8 in MCF-7 cells; 1.5 µM): 17.78 ± 5.19%
concentration of Beclin-1 (Beclin-1 in MCF-7 cells): 2.78 ng/mL
concentration of Beclin-1 [6]: 9.83 ng/mL
cells with active caspase 10 ([7]; 1 µM): 14.48 ± 2.53%
cells with active caspase 10 ([7]; 1.5 µM): 19.78 ± 0.80%
cells with decreased mitochondrial membrane potential (ΔΨm) (MCF-7 cells; 1 µM): 21.00 ± 1.20%
cells with decreased mitochondrial membrane potential (ΔΨm) (MCF-7 cells; 1.5 µM): 38.85 ± 3.46%
cells with decreased mitochondrial membrane potential (ΔΨm) (MDA-MB-231 cells; 1 µM): 3.75 ± 1.34%
cells with decreased mitochondrial membrane potential (ΔΨm) (MDA-MB-231 cells; 1.5 µM): 17.85 ± 3.46%
cells with active caspase 10 ([8]; 1 µM): 11.58 ± 2.30%
cells with active caspase 10 ([8]; 1.5 µM): 20.50 ± 1.49%
concentration of LC3B (LC3B in MDA-MB-231 cells): 483.50 ng/mL
concentration of LC3B (LC3B in MCF-7 cells): 537.74 ng/mL
cells with active caspase 8 ([9]; 1 µM): 18.23 ± 0.62%
cells with active caspase 8 ([9]; 1.5 µM): 23.50 ± 1.03%
